PMC6010128, “Structure–activity relationship investigation of tertiary amine derivatives of cinnamic acid as acetylcholinesterase and butyrylcholinesterase inhibitors: compared with that of phenylpropionic acid, sorbic acid and hexanoic acid” (Journal of Enzyme Inhibition and Medicinal Chemistry, 2018)

Columns and labels:
[1] = pKa by pH-titration method; type: physicochemical; settings: read-out: pKa
Procedure: pKa is determined by pH-titration method according to the report. The titration curve E vs. VT was recorded and pKa value was calculated.

[2] = Log P by shake flask method; type: physicochemical; settings: octanol / PBS pH = 7.4, shake flask
Procedure: Log P is defined as the logarithm of octanol–water partition coefficient. […] Ultraviolet spectrophotometry was applied to determine the concentration of compounds. Log p values were calculated based on the data in triplicate.

AChE [3] = biological target: T1, AChE (Rattus norvegicus, UniProt P37136); experiment: biochemical; settings: for Selectivity for AChE: IC50 (BChE)/IC50 (AChE); for IC50: rat brain AChE, Mean ± SD, triplicate
BChE = BChE (Rattus norvegicus, UniProt Q9JKC1); experiment: biochemical; design: species or system Sprague–Dawley rat; settings: rat serum BChE, Mean ± SD, triplicate
AChE [4] = biological target: T1, AChE; experiment: Kinetic study of AChE inhibition (Lineweaver–Burk); type: biochemical
Procedure: Kinetic characterization of AChE was performed by a reported method. Compound 6g was added into the assay solution and preincubated with the enzyme at 30 °C, followed by the addition of 100 μL acetylthiocholine iodide including five concentrations. The assay solution contained 100 μL compound 6g, 100 μL DTNB, 2.79 ml 0.1 mol/l Na2HPO4/NaH2PO4 buffer (pH 7.4). Kinetic profile of the hydrolysis of acetylthiocholine iodide catalyzed by AChE was determined by the UV–Vis spectrometry at 412 nm. The parallel control experiment was carried out without compound 6g in the mixture.
Compound 6g was selected for further kinetic study since it had the strongest inhibiting activity against AChE among new synthesized compounds.
Fig. 2 Lineaweaver–Burk plot for the inhibition of AChE by compound 6g
Table 2 Kinetic parameters of AChE inhibited by compound 6g
C Michaelis-Menten Km Vmax Ki Ki’
(µmol/L) equation (mmol/L) (ΔAmin-1) (µmol//L) (µmol/L)
(1 picture or pasted object on this page, not shown here)

Sequence of BChE (Q9JKC1 24-597): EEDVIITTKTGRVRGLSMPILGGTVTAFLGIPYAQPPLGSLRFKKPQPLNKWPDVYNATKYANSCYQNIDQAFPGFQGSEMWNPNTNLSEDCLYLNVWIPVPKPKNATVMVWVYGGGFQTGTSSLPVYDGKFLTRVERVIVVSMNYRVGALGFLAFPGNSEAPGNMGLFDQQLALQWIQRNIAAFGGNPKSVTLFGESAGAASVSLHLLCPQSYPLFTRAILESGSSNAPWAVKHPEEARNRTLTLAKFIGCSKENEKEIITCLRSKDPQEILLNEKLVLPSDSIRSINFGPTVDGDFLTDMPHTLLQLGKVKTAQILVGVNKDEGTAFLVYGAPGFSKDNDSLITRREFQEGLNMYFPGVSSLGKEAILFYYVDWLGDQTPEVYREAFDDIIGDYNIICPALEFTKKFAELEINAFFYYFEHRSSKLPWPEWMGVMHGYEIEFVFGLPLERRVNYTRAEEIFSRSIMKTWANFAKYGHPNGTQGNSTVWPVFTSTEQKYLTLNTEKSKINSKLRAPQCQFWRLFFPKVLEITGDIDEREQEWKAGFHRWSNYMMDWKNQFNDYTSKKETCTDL
T1 sequence (P37136 32-614): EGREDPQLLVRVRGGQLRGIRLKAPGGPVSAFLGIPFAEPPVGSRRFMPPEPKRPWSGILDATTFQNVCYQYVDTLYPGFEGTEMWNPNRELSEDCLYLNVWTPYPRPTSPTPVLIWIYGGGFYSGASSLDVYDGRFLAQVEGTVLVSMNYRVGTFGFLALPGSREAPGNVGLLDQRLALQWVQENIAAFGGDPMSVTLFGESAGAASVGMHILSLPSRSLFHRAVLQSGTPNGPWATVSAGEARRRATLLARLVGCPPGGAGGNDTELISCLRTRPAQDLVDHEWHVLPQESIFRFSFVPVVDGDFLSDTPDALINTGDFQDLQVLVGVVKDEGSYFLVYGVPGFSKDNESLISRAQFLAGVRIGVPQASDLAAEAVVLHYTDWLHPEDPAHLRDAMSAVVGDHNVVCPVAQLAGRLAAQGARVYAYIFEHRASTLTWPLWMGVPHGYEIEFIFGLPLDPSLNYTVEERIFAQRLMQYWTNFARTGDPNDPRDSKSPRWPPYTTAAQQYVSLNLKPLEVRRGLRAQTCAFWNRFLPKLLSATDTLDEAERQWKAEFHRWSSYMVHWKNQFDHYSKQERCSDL

Structure (SMILES) | pKa [1] | logP [2] | Selectivity for AChE (AChE [3]) | IC50 (AChE [3]) [µM] | IC50 (BChE) [µM] | Vmax (AChE [4]; AChE with 0.72 µmol/L compound 6g) | Vmax (AChE [4]; AChE with 1.43 µmol/L compound 6g) | Vmax (AChE [4]; AChE with 2.86 µmol/L compound 6g) | non-competitive constant (Ki′) (AChE [4]; AChE, acetylthiocholine iodide substrate) [µM] | Ki (AChE [4]; AChE, acetylthiocholine iodide substrate, read-out: competitive inhibit constant (Ki)) [µM] | type of inhibition against AChE (AChE [4]; Lineweaver–Burk analysis)
CCN(CC)CCOc1ccccc1NC(=O)C=Cc1ccccc1 [Compound 4e] | 7.28 | 2.81 | 0.04 | 197 ± 6.81 | 6.99 ± 0.29 |  |  |  |  |  | 
O=C(C=Cc1ccccc1)Nc1ccc(OCCN2CCCC2)cc1 [Compound 6g] | 6.74 | 1.33 | 28.6 | 3.64 ± 0.28 | 104 ± 1.34 | 0.023 ΔAmin-1 | 0.021 ΔAmin-1 | 0.019 ΔAmin-1 | 2.14 | 7.27 | mixed-type inhibition
C/C=C/C=C/C(=O)Nc1ccc(OCCN2CCCC2)cc1 [Compound 18g] | 7.73 | 1.18 | 8.63 | 13.6 ± 1.24 | 118 ± 6.79 |  |  |  |  |  | 
CCN(CC)CCOc1ccc(NC(=O)CCc2ccccc2)cc1 [Compound 12e] | 6.52 | 2.58 | 2.50 | 84.6 ± 6.1 | 212 ± 4.87 |  |  |  |  |  | 
C/C=C/C=C/C(=O)Nc1cccc(OCCN2CCCCC2)c1 [Compound 17f] | 7.17 | 2.23 | 0.76 | 44.2 ± 1.36 | 33.6 ± 1.59 |  |  |  |  |  | 
CCCCCC(=O)Nc1ccccc1OCCN(CC)CC [Compound 22e] | 7.08 | 1.67 | <0.07 | > 500 | 37.2 ± 2.24 |  |  |  |  |  | 
O=C(CCc1ccccc1)Nc1ccc(OCCN2CCCC2)cc1 [Compound 12g] | 6.8 | 2.26 |  | 24.4 ± 0.76 | 98.5 ± 1.09 |  |  |  |  |  | 
CCCCCC(=O)Nc1cccc(OCCN(CC)CC)c1 [Compound 23e] | 7.15 | 0.93 | 0.01 | 125 ± 4.23 | 0.67 ± 0.04 |  |  |  |  |  | 
CCCCCC(=O)Nc1ccc(OCCN2CCCCC2)cc1 [Compound 24f] | 7.16 | 1.54 | 0.54 | 31.7 ± 2.74 | 17 ± 2.03 |  |  |  |  |  | 
CCCCCC(=O)Nc1cccc(OCCN(C)C)c1 [Compound 23d] | 6.52 | 0.37 | 0.13 | 60.6 ± 2.18 | 7.89 ± 0.89 |  |  |  |  |  | 
CCN(CC)CCOc1cccc(NC(=O)CCc2ccccc2)c1 [Compound 11e] | 6.51 | 2.23 | 0.08 | 102 ± 3.36 | 8.23 ± 0.59 |  |  |  |  |  | 
C/C=C/C=C/C(=O)Nc1cccc(OCCN2CCCC2)c1 [Compound 17g] | 7.06 | 1.41 | 1.51 | 18.8 ± 0.63 | 28.5 ± 1.24 |  |  |  |  |  | 
O=C(CCc1ccccc1)Nc1ccccc1OCCN1CCCCC1 [Compound 10f] | 7.02 | 1.18 | 0.002 | 250 ± 8.21 | 0.59 ± 0.09 |  |  |  |  |  | 
